Test results as given in ChEMBL document CHEMBL5154795, “Exploring the structure-activity relationships of diphenylurea as an antibacterial scaffold active against methicillin- and vancomycin-resistant Staphylococcus aureus” (Eur J Med Chem, 2022).
Values after ≈ are worked out from the molar mass of the structure shown. Active and inactive are the calls of the source. No cut-off for these calls is given here.

Columns and labels:
Staphylococcus aureus [1] = experiment: Antibacterial activity against methicillin-resistant Staphylococcus aureus USA300 incubated for 18 to 20 hrs by broth microdilution method; assay type: functional; details: time 18-20 hrs
[2] = Cytotoxicity against human HaCaT cells assessed as cell viability at 64 ug/ml incubated for 24 hrs by MTS assay relative to control; assay type: toxicity, cell-based; details: at 64 µg/mL, read-out: Activity
Staphylococcus aureus [3] = experiment: Induction of drug resistance in methicillin-resistant Staphylococcus aureus USA400 NRS 123 assessed as fold increase in MIC measured after 15 passages by broth microdilution assay; assay type: functional
Staphylococcus aureus [4] = experiment: Antibacterial activity against Vancomycin-resistant Staphylococcus aureus 10 incubated for 18 to 20 hrs by broth microdilution method; assay type: functional; details: time 18-20 hrs
Staphylococcus aureus [5] = experiment: Antibacterial activity against methicillin-resistant Staphylococcus aureus NRS 119 incubated for 18 to 20 hrs by broth microdilution method; assay type: functional; details: time 18-20 hrs
[6] = tested on: Staphylococcus epidermidis; experiment: Antibacterial activity against Staphylococcus epidermidis NRS 101 incubated for 18 to 20 hrs by broth microdilution method; assay type: functional; details: time 18-20 hrs
Staphylococcus aureus [7] = experiment: Antibacterial activity against methicillin-resistant Staphylococcus aureus NRS 385 (USA500) incubated for 18 to 20 hrs by broth microdilution method; assay type: functional; details: time 18-20 hrs
Staphylococcus aureus [8] = experiment: Antibacterial activity against methicillin-sensitive Staphylococcus aureus NRS 107 incubated for 18 to 20 hrs by broth microdilution method; assay type: functional; details: time 18-20 hrs
Staphylococcus aureus [9] = experiment: Antibacterial activity against Vancomycin-resistant Staphylococcus aureus 9 incubated for 18 to 20 hrs by broth microdilution method; assay type: functional; details: time 18-20 hrs
Staphylococcus aureus [10] = experiment: Antibacterial activity against methicillin-resistant Staphylococcus aureus NRS 384 (USA300) incubated for 18 to 20 hrs by broth microdilution method; assay type: functional; details: time 18-20 hrs
Caco-2 [11] = experiment: Cytotoxicity against human Caco-2 cells at 128 ug/ml incubated for 24 hrs by MTS assay; assay type: toxicity, cell-based; details: caco-2, 24 h, dose 128 µg/ml
Staphylococcus aureus [12] = experiment: Antibacterial activity against methicillin-resistant Staphylococcus aureus NRS 386 (USA700) incubated for 18 to 20 hrs by broth microdilution method; assay type: functional; details: time 18-20 hrs
Staphylococcus aureus [13] = experiment: Antibacterial activity against Vancomycin-resistant Staphylococcus aureus 12 incubated for 18 to 20 hrs by broth microdilution method; assay type: functional; details: time 18-20 hrs
Staphylococcus aureus [14] = experiment: Antibacterial activity against methicillin-resistant Staphylococcus aureus NRS 123 (USA400) incubated for 18 to 20 hrs by broth microdilution method; assay type: functional; details: time 18-20 hrs
Staphylococcus aureus [15] = experiment: Antibacterial activity against methicillin-sensitive Staphylococcus aureus ATCC 6538 incubated for 18 to 20 hrs by broth microdilution method; assay type: functional; details: time 18-20 hrs
Staphylococcus aureus [16] = experiment: Antibacterial activity against methicillin-resistant Staphylococcus aureus USA400 NRS 123 assessed as time of post-antibiotic effect at 5 times MIC incubated for 2 hrs followed by compound washout and measured every single 1 hr; assay type: functional
Caco-2 [17] = experiment: Cytotoxicity against human Caco-2 cells assessed as reduction in cell viability at 64 ug/ml incubated for 24 hrs by MTS assay; assay type: toxicity, cell-based; details: caco-2, 24 h, dose 64 µg/ml
[18] = Cytotoxicity against human Caco-2 cells assessed as cell viability at upto 128 ug/ml incubated for 24 hrs by MTS assay relative to control; assay type: toxicity, cell-based; details: up to 128 µg/mL, read-out: Activity
[19] = Cytotoxicity against human HaCaT cells assessed as cell viability upto 128 ug/ml incubated for 24 hrs by MTS assay relative to control; assay type: toxicity, cell-based; details: up to 128 µg/mL, read-out: Activity
Staphylococcus aureus [20] = experiment: Potentiation of vancomycin-induced antibacterial activity against vancomycin-resistant Staphylococcus aureus 13 assessed as vancomycin MIC at 0.5 times MIC incubated for 18 to 20 hrs by broth microdilution method; assay type: functional; details: time 18-20 hrs
Staphylococcus aureus [21] = experiment: Potentiation of vancomycin-induced antibacterial activity against vancomycin-resistant Staphylococcus aureus 10 assessed as vancomycin MIC at 0.5 times MIC incubated for 18 to 20 hrs by broth microdilution method; assay type: functional; details: time 18-20 hrs
[22] = Hemolytic activity in rabbit erythrocytes at 32 ug/ml incubated for 30 min by absorbance based analysis relative to control; assay type: toxicity, cell-based, Oryctolagus cuniculus, Erythrocyte; details: at 32 µg/mL, read-out: Activity
Staphylococcus aureus [23] = experiment: Antibacterial activity against methicillin-resistant Staphylococcus aureus USA300 infected in BALB/c mouse assessed as recovery of body weight loss administered 72 hrs post infection topically twice daily for 4 days; assay type: functional, organism-based; details: time 4.0 day
Staphylococcus aureus [24] = experiment: Potentiation of vancomycin-induced antibacterial activity against vancomycin-resistant Staphylococcus aureus 2 assessed as vancomycin MIC at 0.5 times MIC incubated for 18 to 20 hrs by broth microdilution method; assay type: functional; details: time 18-20 hrs
Staphylococcus aureus [25] = experiment: Potentiation of vancomycin-induced antibacterial activity against vancomycin-resistant Staphylococcus aureus 3b assessed as vancomycin MIC at 0.5 times MIC incubated for 18 to 20 hrs by broth microdilution method; assay type: functional; details: time 18-20 hrs
Staphylococcus aureus [26] = experiment: Potentiation of vancomycin-induced antibacterial activity against vancomycin-resistant Staphylococcus aureus 3 assessed as vancomycin MIC at 0.5 times MIC incubated for 18 to 20 hrs by broth microdilution method; assay type: functional; details: time 18-20 hrs
Staphylococcus aureus [27] = experiment: Potentiation of vancomycin-induced antibacterial activity against vancomycin-resistant Staphylococcus aureus 12 assessed as vancomycin MIC at 0.5 times MIC incubated for 18 to 20 hrs by broth microdilution method; assay type: functional; details: time 18-20 hrs
Staphylococcus aureus [28] = experiment: Potentiation of vancomycin-induced antibacterial activity against vancomycin-resistant Staphylococcus aureus 1 assessed as vancomycin MIC at 0.5 times MIC incubated for 18 to 20 hrs by broth microdilution method; assay type: functional; details: time 18-20 hrs
Staphylococcus aureus [29] = experiment: Potentiation of vancomycin-induced antibacterial activity against vancomycin-resistant Staphylococcus aureus 9 assessed as vancomycin MIC at 0.5 times MIC incubated for 18 to 20 hrs by broth microdilution method; assay type: functional; details: time 18-20 hrs

| SMILES | MIC (Staphylococcus aureus [1]) | MIC (Staphylococcus aureus [4]) | MIC (Staphylococcus aureus [5]) | MIC [6] | MIC (Staphylococcus aureus [7]) | MIC (Staphylococcus aureus [8]) | MIC (Staphylococcus aureus [9]) | MIC (Staphylococcus aureus [10]) | MIC (Staphylococcus aureus [12]) | MIC (Staphylococcus aureus [13]) | MIC (Staphylococcus aureus [14]) | MIC (Staphylococcus aureus [15]) | Time (Staphylococcus aureus [16]) | other results |
| --- | --- | --- | --- | --- | --- | --- | --- | --- | --- | --- | --- | --- | --- | --- |
| C/C(=N\NC(=N)N)c1ccc(NC(=O)Nc2ccc(-c3cccn3C)cc2)cc1 | 4 µg/mL (≈ 10.3 µM) | – | – | – | – | – | – | – | – | – | – | – | – | – |
| C/C(=N\NC(=N)N)c1ccc(NC(=O)Nc2ccc(/C=C/c3ccccc3)cc2)cc1 | – | 8 µg/mL (≈ 19.4 µM) | 16 µg/mL (≈ 38.8 µM) | 8 µg/mL (≈ 19.4 µM) | 8 µg/mL (≈ 19.4 µM) | 8 µg/mL (≈ 19.4 µM) | 16 µg/mL (≈ 38.8 µM) | 2 µg/mL (≈ 4.85 µM) | 4 µg/mL (≈ 9.7 µM) | 8 µg/mL (≈ 19.4 µM) | 4 µg/mL (≈ 9.7 µM) | 16 µg/mL (≈ 38.8 µM) | 3 h | viability at 24 h, 64 ug/ml [2]: 100%; fold change (FC) (Staphylococcus aureus [3]): 1; Activity (Caco-2 [11]): Toxic; Activity (Caco-2 [17]): Non-Toxic |
| C/C(=N\NC(=N)N)c1ccc(NC(=O)Nc2ccc(-c3cccc(C)c3)cc2)cc1 | 4 µg/mL (≈ 9.99 µM) | – | – | – | – | – | – | – | – | – | – | – | – | – |
| C/C(=N\NC(=N)N)c1ccc(NC(=O)Nc2ccc(-c3ccoc3)cc2)cc1 | 4 µg/mL (≈ 10.6 µM) | – | – | – | – | – | – | – | – | – | – | – | – | – |
| C/C(=N\NC(=N)N)c1ccc(NC(=O)Nc2ccc(-c3ccccc3)cc2)cc1 | 4 µg/mL (≈ 10.4 µM) | – | – | – | – | – | – | – | – | – | – | – | – | – |
| C/C(=N\NC(=N)N)c1ccc(NC(=O)Nc2ccc(-c3cccs3)cc2)cc1 | 4 µg/mL (≈ 10.2 µM) | 16 µg/mL (≈ 40.8 µM) | 16 µg/mL (≈ 40.8 µM) | 8 µg/mL (≈ 20.4 µM) | 8 µg/mL (≈ 20.4 µM) | 2 µg/mL (≈ 5.1 µM) | 8 µg/mL (≈ 20.4 µM) | 4 µg/mL (≈ 10.2 µM) | 4 µg/mL (≈ 10.2 µM) | 8 µg/mL (≈ 20.4 µM) | 4 µg/mL (≈ 10.2 µM) | 4 µg/mL (≈ 10.2 µM) | 3 h | fold change (FC) (Staphylococcus aureus [3]): 1; viability at 24 h [18]: 100%; viability at 24 h [19]: 100% |
| C/C(=N\NC(=N)N)c1ccc(NC(=O)Nc2ccc(-c3ccco3)cc2)cc1 | 4 µg/mL (≈ 10.6 µM) | 4 µg/mL (≈ 10.6 µM) | 4 µg/mL (≈ 10.6 µM) | 2 µg/mL (≈ 5.31 µM) | 8 µg/mL (≈ 21.3 µM) | 8 µg/mL (≈ 21.3 µM) | 4 µg/mL (≈ 10.6 µM) | 4 µg/mL (≈ 10.6 µM) | 2 µg/mL (≈ 5.31 µM) | 4 µg/mL (≈ 10.6 µM) | 2 µg/mL (≈ 5.31 µM) | 2 µg/mL (≈ 5.31 µM) | 5 h | MIC (Staphylococcus aureus [20]): 512 µg/mL; viability at 24 h, 64 ug/ml [2]: 100%; MIC (Staphylococcus aureus [21]): 8 µg/mL; hemolysis at 0.5 h, 32 ug/ml [22]: < 2%; Activity (Staphylococcus aureus [23]): Active; MIC (Staphylococcus aureus [24]): 8 µg/mL; MIC (Staphylococcus aureus [25]): 8 µg/mL; viability at 24 h [18]: 100%; MIC (Staphylococcus aureus [26]): 2 µg/mL; MIC (Staphylococcus aureus [27]): 512 µg/mL; MIC (Staphylococcus aureus [28]): 2 µg/mL; MIC (Staphylococcus aureus [29]): 128 µg/mL |
| C/C(=N\NC(=N)N)c1ccc(NC(=O)Nc2ccc(Cc3ccccc3)cc2)cc1 | 4 µg/mL (≈ 9.99 µM) | – | – | – | – | – | – | – | – | – | – | – | – | – |
| C/C(=N\NC(=N)N)c1ccc(NC(=O)Nc2ccc(-c3cc4ccccc4s3)cc2)cc1 | 4 µg/mL (≈ 9.04 µM) | – | – | – | – | – | – | – | – | – | – | – | – | – |
| C/C(=N\NC(=N)N)c1ccc(NC(=O)Nc2ccc(C3CCC3)cc2)cc1 | ≥ 64 µg/mL | – | – | – | – | – | – | – | – | – | – | – | – | – |
| C/C(=N\NC(=N)N)c1ccc(NC(=O)Nc2ccc(/C=C/C3CCCCC3)cc2)cc1 | – | 8 µg/mL (≈ 19.1 µM) | 4 µg/mL (≈ 9.56 µM) | 8 µg/mL (≈ 19.1 µM) | 8 µg/mL (≈ 19.1 µM) | 4 µg/mL (≈ 9.56 µM) | 8 µg/mL (≈ 19.1 µM) | 2 µg/mL (≈ 4.78 µM) | 8 µg/mL (≈ 19.1 µM) | 8 µg/mL (≈ 19.1 µM) | 4 µg/mL (≈ 9.56 µM) | 4 µg/mL (≈ 9.56 µM) | 6 h | viability at 24 h, 64 ug/ml [2]: 100%; viability at 24 h [18]: 100% |
| C/C(=N\NC(=N)N)c1ccc(NC(=O)Nc2ccc(-c3ccccn3)cc2)cc1 | 4 µg/mL (≈ 10.3 µM) | – | – | – | – | – | – | – | – | – | – | – | – | – |
| C/C(=N\NC(=N)N)c1ccc(NC(=O)Nc2ccc(-c3ccccc3C)cc2)cc1 | 4 µg/mL (≈ 9.99 µM) | – | – | – | – | – | – | – | – | – | – | – | – | – |
